In ChEMBL document CHEMBL1275481, “Mechanism and fitness costs of PR-39 resistance in Salmonella enterica serovar Typhimurium LT2” (2008):
Values after ≈ are worked out from the molar mass of the structure shown. Active and inactive are the calls of the source. No cut-off for these calls is given here.

Legend:
[1] = tested on: Salmonella typhimurium; assay: Antimicrobial activity against PR-39-resistant Salmonella enterica serovar Typhimurium LT2 DA6192 by Etest; assay type: functional
[2] = tested on: Salmonella typhimurium; assay: Antimicrobial activity against PR-39-resistant sbmA-deficient Salmonella enterica serovar Typhimurium LT2 DA12088 by Etest; assay type: functional
[3] = tested on: Salmonella typhimurium; assay: Antimicrobial activity against PR-39-resistant Salmonella enterica serovar Typhimurium LT2 DA10899 harboring Q179Stop mutant gene by Etest; assay type: functional
[4] = tested on: Salmonella typhimurium; assay: Antimicrobial activity against sbmA-deficient Salmonella enterica serovar Typhimurium LT2 DA12088 assessed as log increase in survival rate at 4 uM after 24 hrs relative to wild type; assay type: functional
[5] = tested on: Salmonella typhimurium; assay: Antimicrobial activity against Salmonella enterica serovar Typhimurium LT2 DA10913 harboring sbmA C67Stop mutant gene by Etest; assay type: functional
[6] = tested on: Salmonella typhimurium; assay: Antimicrobial activity against sbmA-deficient Salmonella enterica serovar Typhimurium LT2 DA12088 by Etest; assay type: functional
[7] = tested on: Salmonella typhimurium; assay: Antimicrobial activity against Salmonella enterica serovar Typhimurium LT2 DA10914 harboring sbmA S251L mutant gene by Etest; assay type: functional
[8] = tested on: Salmonella typhimurium; assay: Antimicrobial activity against Salmonella enterica serovar Typhimurium LT2 DA10902 harboring deletion of bp 843-844 in sbmA gene by Etest; assay type: functional
[9] = tested on: Salmonella typhimurium; assay: Antimicrobial activity against sbmA-deficient Salmonella enterica serovar Typhimurium LT2 DA12088 assessed as log increase in survival rate at 8 uM after 24 hrs relative to wild type; assay type: functional
[10] = tested on: Salmonella typhimurium; assay: Antimicrobial activity against Salmonella enterica serovar Typhimurium LT2 DA10912 harboring sbmA Y326C mutant gene by Etest; assay type: functional
[11] = tested on: Salmonella typhimurium; assay: Antimicrobial activity against Salmonella enterica serovar Typhimurium LT2 DA10899 harboring Q179Stop mutant gene at 8 uM after 24 hrs; assay type: functional, organism-based; details: Salmonella enterica subsp. enterica serovar Typhimurium str. LT2
[12] = tested on: Salmonella typhimurium; assay: Antimicrobial activity against sbmA-deficient Salmonella enterica serovar Typhimurium LT2 DA12088 at 16 uM after 24 hrs; assay type: functional, organism-based; details: Salmonella enterica subsp. enterica serovar Typhimurium str. LT2
[13] = tested on: Salmonella typhimurium; assay: Antimicrobial activity against sbmA-deficient Salmonella enterica serovar Typhimurium LT2 DA12088 assessed as log increase in survival rate at 16 uM after 24 hrs relative to wild type; assay type: functional
[14] = tested on: Salmonella typhimurium; assay: Antimicrobial activity against Salmonella enterica serovar Typhimurium LT2 at 16 uM after 24 hrs; assay type: functional, organism-based; details: Salmonella enterica subsp. enterica serovar Typhimurium
[15] = tested on: Salmonella typhimurium; assay: Antimicrobial activity against Salmonella enterica serovar Typhimurium LT2 DA10907 harboring sbmA E287K mutant gene by Etest; assay type: functional
[16] = tested on: Salmonella typhimurium; assay: Antimicrobial activity against Salmonella enterica serovar Typhimurium LT2 DA10897 harboring sbmA W373Stop mutant gene by Etest; assay type: functional
[17] = tested on: Salmonella typhimurium; assay: Antimicrobial activity against Salmonella enterica serovar Typhimurium LT2 DA10899 harboring sbmA Q179Stop mutant gene by Etest; assay type: functional
[18] = tested on: Salmonella typhimurium; assay: Antimicrobial activity against Salmonella enterica serovar Typhimurium LT2 at 8 uM after 24 hrs; assay type: functional, organism-based; details: Salmonella enterica subsp. enterica serovar Typhimurium
[19] = tested on: Salmonella typhimurium; assay: Antimicrobial activity against Salmonella enterica serovar Typhimurium LT2 DA6192 by Etest; assay type: functional
[20] = tested on: Salmonella typhimurium; assay: Antimicrobial activity against Salmonella enterica serovar Typhimurium LT2 DA14344 harboring sbmA Q179Stop gene by Etest in presence of arabinose; assay type: functional
[21] = tested on: Salmonella typhimurium; assay: Antimicrobial activity against Salmonella enterica serovar Typhimurium LT2 DA10905 harboring sbmA L379P mutant gene by Etest; assay type: functional
[22] = tested on: Salmonella typhimurium; assay: Antimicrobial activity against Salmonella enterica serovar Typhimurium LT2 DA10899 harboring Q179Stop mutant gene at 16 uM after 24 hrs; assay type: functional, organism-based; details: Salmonella enterica subsp. enterica serovar Typhimurium str. LT2
[23] = tested on: Salmonella typhimurium; assay: Antimicrobial activity against Salmonella enterica serovar Typhimurium LT2 by Etest; assay type: functional, Salmonella enterica subsp. enterica serovar Typhimurium
[24] = tested on: Salmonella typhimurium; assay: Antimicrobial activity against Salmonella enterica serovar Typhimurium LT2 DA10896 harboring sbmA T375K mutant gene by Etest; assay type: functional
[25] = tested on: Salmonella typhimurium; assay: Antimicrobial activity against sbmA-deficient Salmonella enterica serovar Typhimurium LT2 DA13090 harboring sbmA gene by Etest in presence of arabinose; assay type: functional
[26] = tested on: Salmonella typhimurium; assay: Antimicrobial activity against Salmonella enterica serovar Typhimurium LT2 DA10898 harboring deletion of bp 967 in sbmA gene by Etest; assay type: functional
[27] = tested on: Salmonella typhimurium; assay: Antimicrobial activity against sbmA-deficient Salmonella enterica serovar Typhimurium LT2 DA12088 at 8 uM after 24 hrs; assay type: functional, organism-based; details: Salmonella enterica subsp. enterica serovar Typhimurium str. LT2
[28] = tested on: Salmonella typhimurium; assay: Antimicrobial activity against Salmonella enterica serovar Typhimurium LT2 DA13088 harboring sbmA gene by Etest in presence of arabinose; assay type: functional
[29] = Salmonella enterica subsp. enterica serovar Typhimurium str. LT2

CC1(C)S[C@@H]2[C@H](NC(=O)[C@H](N)c3ccccc3)C(=O)N2[C@H]1C(=O)O [AMPICILLIN]
MIC [1]: 0.75 µg/mL (≈ 2.15 µM) | MIC [2]: 0.75 µg/mL (≈ 2.15 µM) | MIC [3]: 0.75 µg/mL (≈ 2.15 µM)

CC[C@H](C)[C@H](NC(=O)[C@H](CCCCN)NC(=O)[C@H](CCC(=O)O)NC(=O)[C@H](CCCCN)NC(=O)[C@H](CO)NC(=O)[C@H](CCCCN)NC(=O)[C@H](CCCNC(=N)N)NC(=O)[C@H](Cc1ccccc1)NC(=O)[C@H](Cc1ccccc1)NC(=O)[C@H](CC(=O)O)NC(=O)CNC(=O)[C@H](CC(C)C)NC(=O)[C@@H](N)CC(C)C)C(=O)NCC(=O)N[C@@H](CCCCN)C(=O)N[C@@H](CCC(=O)O)C(=O)N[C@@H](Cc1ccccc1)C(=O)N[C@@H](CCCCN)C(=O)N[C@@H](CCCNC(=N)N)C(=O)N[C@H](C(=O)N[C@H](C(=O)N[C@@H](CCC(N)=O)C(=O)N[C@@H](CCCNC(=N)N)C(=O)N[C@H](C(=O)N[C@@H](CCCCN)C(=O)N[C@@H](CC(=O)O)C(=O)N[C@@H](Cc1ccccc1)C(=O)N[C@@H](CC(C)C)C(=O)N[C@@H](CCCNC(=N)N)C(=O)N[C@@H](CC(N)=O)C(=O)N[C@@H](CC(C)C)C(=O)N[C@H](C(=O)N1CCC[C@H]1C(=O)N[C@@H](CCCNC(=N)N)C(=O)N[C@H](C(=O)N[C@@H](CCC(=O)O)C(=O)N[C@@H](CO)C(=O)O)[C@@H](C)O)C(C)C)[C@@H](C)CC)C(C)C)[C@@H](C)CC [CATHELICIDIN]
MIC [1]: 66 µg/mL (≈ 14.7 µM) | MIC [2]: 66 µg/mL (≈ 14.7 µM) | MIC [3]: 66 µg/mL (≈ 14.7 µM)

CO/N=C(\C(=O)N[C@@H]1C(=O)N2C(C(=O)[O-])=C(C[N+]3(C)CCCC3)CS[C@H]12)c1csc(N)n1 [CEFEPIME]
MIC [1]: 0.064 µg/mL (≈ 0.133 µM) | MIC [2]: 0.064 µg/mL (≈ 0.133 µM) | MIC [3]: 0.064 µg/mL (≈ 0.133 µM)

COCC1=C(C(=O)O)N2C(=O)[C@@H](NC(=O)/C(=N\OC)c3csc(N)n3)[C@H]2SC1 [CEFPODOXIME]
MIC [1]: 0.38 µg/mL (≈ 0.889 µM) | MIC [2]: 0.38 µg/mL (≈ 0.889 µM) | MIC [3]: 0.38 µg/mL (≈ 0.889 µM)

CO/N=C(\C(=O)N[C@@H]1C(=O)N2C(C(=O)O)=C(COC(N)=O)CS[C@H]12)c1ccco1 [CEFUROXIME]
MIC [1]: 4 µg/mL (≈ 9.43 µM) | MIC [2]: 4 µg/mL (≈ 9.43 µM) | MIC [3]: 4 µg/mL (≈ 9.43 µM)

CC(=O)OCC1=C(C(=O)O)N2C(=O)[C@@H](NC(=O)Cc3cccs3)[C@H]2SC1 [CEPHALOTHIN]
MIC [1]: 3 µg/mL (≈ 7.57 µM) | MIC [2]: 3 µg/mL (≈ 7.57 µM) | MIC [3]: 3 µg/mL (≈ 7.57 µM)

O=C(N[C@H](CO)[C@H](O)c1ccc([N+](=O)[O-])cc1)C(Cl)Cl [CHLORAMPHENICOL]
MIC [1]: 4 µg/mL (≈ 12.4 µM) | MIC [2]: 4 µg/mL (≈ 12.4 µM) | MIC [3]: 4 µg/mL (≈ 12.4 µM)

O=C(O)c1cn(C2CC2)c2cc(N3CCNCC3)c(F)cc2c1=O [CIPROFLOXACIN]
MIC [1]: 0.008 µg/mL (≈ 0.0241 µM) | MIC [2]: 0.008 µg/mL (≈ 0.0241 µM) | MIC [3]: 0.008 µg/mL (≈ 0.0241 µM)

NC[C@H]1O[C@H](O[C@H]2[C@H](O)[C@@H](O[C@H]3O[C@H](CO)[C@@H](O)[C@H](N)[C@H]3O)[C@H](N)C[C@@H]2N)[C@H](O)[C@@H](O)[C@@H]1O [KANAMYCIN]
MIC [1]: 1.5 µg/mL (≈ 3.1 µM) | MIC [2]: 1.5 µg/mL (≈ 3.1 µM) | MIC [3]: 1.5 µg/mL (≈ 3.1 µM)

CCn1cc(C(=O)O)c(=O)c2ccc(C)nc21 [NALIDIXIC ACID]
MIC [1]: 4 µg/mL (≈ 17.2 µM) | MIC [2]: 4 µg/mL (≈ 17.2 µM) | MIC [3]: 4 µg/mL (≈ 17.2 µM)

O=C1CN(/N=C/c2ccc([N+](=O)[O-])o2)C(=O)N1 [NITROFURANTOIN]
MIC [1]: 8 µg/mL (≈ 33.6 µM) | MIC [2]: 8 µg/mL (≈ 33.6 µM) | MIC [3]: 8 µg/mL (≈ 33.6 µM)

CN[C@@H]1[C@H](O[C@H]2[C@H](O[C@H]3[C@H](O)[C@@H](O)[C@H](N=C(N)N)[C@@H](O)[C@@H]3N=C(N)N)O[C@@H](C)[C@]2(O)C=O)O[C@@H](CO)[C@H](O)[C@H]1O [STREPTOMYCIN]
MIC [1]: 3 µg/mL (≈ 5.16 µM) | MIC [2]: 3 µg/mL (≈ 5.16 µM) | MIC [3]: 3 µg/mL (≈ 5.16 µM)

CN(C)[C@@H]1C(O)=C(C(N)=O)C(=O)[C@@]2(O)C(O)=C3C(=O)c4c(O)cccc4[C@@](C)(O)[C@H]3C[C@@H]12 [TETRACYCLINE]
MIC [1]: 3 µg/mL (≈ 6.75 µM) | MIC [2]: 3 µg/mL (≈ 6.75 µM) | MIC [3]: 3 µg/mL (≈ 6.75 µM)

BLEOMYCIN
MIC [1, 29]: 0.4 µg/mL | MIC [2, 29]: 1.8 µg/mL | MIC [3, 29]: 1.8 µg/mL

COLISTIN
MIC [1, 29]: 0.5 µg/mL | MIC [2, 29]: 0.5 µg/mL | MIC [3, 29]: 0.5 µg/mL

H-GLLRKGGEKIGEKLKKIGQKIKNFFQKLVPQPEQ-OH
MIC [1]: 32 µg/mL | MIC [2]: 32 µg/mL | MIC [3]: 32 µg/mL

H-GLVRKGGEKFGEKLRKIGQKIKEFFQKLALEIEQ-OH
MIC [1]: 23 µg/mL | MIC [2]: 30 µg/mL | MIC [3]: 23 µg/mL

H-RRRPRPPYLPRPRPPPFFPPRLPPRIPPGFPPRFPPRFP-NH2
FC [4]: 4 | MIC [5]: 7 µM | MIC [6]: 6 µM | MIC [1]: 8.5 µg/mL | MIC [7]: 7 µM | MIC [2]: 28 µg/mL | MIC [8]: 7 µM | FC [9]: 4 | MIC [3]: 28 µg/mL | MIC [10]: 5 µM | Activity [11]: inactive | Activity [12]: inactive | FC [13]: 4 | Activity [14]: inactive | MIC [15]: 7 µM | MIC [16]: 7 µM | MIC [17]: 6 µM | Activity [18]: inactive | MIC [19]: 2 µM | MIC [20]: 3 µM | MIC [21]: 7 µM | Activity [22]: inactive | MIC [23]: 3 µM | MIC [24]: 6 µM | MIC [25]: 3 µM | MIC [26]: 7 µM | Activity [27]: inactive | MIC [28]: 1.5 µM
